Test results reported in patent US8501728B2, “Substituted heteroarylamide oxazepinopyrimidone derivatives” (priority 2008, dated 2013).
Where two headings read alike, the source gives them in different places.

Biological target: T1, commercial GSK3beta (Millipore) (Homo sapiens, UniProt P49841)
T1 construct: purchased Millipore
Assay: biochemical
Method: In a fourth protocol: 7.5 μM of prephosphorylated GS1 peptide and 10 μM ATP (containing 300,000 cpm of ^33P-ATP) were incubated in 50 mM Hepes, pH 7.2, 1 mM DTT, 1 mM MgCl2, 1 mM EGTA, 0.01% Tween 20 buffer for 90 minutes at room temperature in the presence of commercial GSK3beta (Millipore) (total reaction volume: 100 microliters).
Inhibitors were solubilised in DMSO (final solvent concentration in the reaction medium, 1%).
The reaction was stopped with 100 microliters of a solution made of 25 g polyphosphoric acid (85% P2O5), 126 ml 85% H3PO4, H2O to 500 ml and then diluted to 1:100 before use. An aliquot of the reaction mixture was then transferred to Whatman P81 cation exchange filters and rinsed with the solution described above. Incorporated ^33P radioactivity was determined by liquid scintillation spectrometry.
(Woodgett, J. R. (1989) Analytical Biochemistry 180, 237-241.

[1] = protocol 4: 7.5 μM GS1 peptide, 10 μM ATP, 90 minutes at room temperature, read-out: GSK3β inhibitory activity IC50

T1 sequence (P49841 whole entry): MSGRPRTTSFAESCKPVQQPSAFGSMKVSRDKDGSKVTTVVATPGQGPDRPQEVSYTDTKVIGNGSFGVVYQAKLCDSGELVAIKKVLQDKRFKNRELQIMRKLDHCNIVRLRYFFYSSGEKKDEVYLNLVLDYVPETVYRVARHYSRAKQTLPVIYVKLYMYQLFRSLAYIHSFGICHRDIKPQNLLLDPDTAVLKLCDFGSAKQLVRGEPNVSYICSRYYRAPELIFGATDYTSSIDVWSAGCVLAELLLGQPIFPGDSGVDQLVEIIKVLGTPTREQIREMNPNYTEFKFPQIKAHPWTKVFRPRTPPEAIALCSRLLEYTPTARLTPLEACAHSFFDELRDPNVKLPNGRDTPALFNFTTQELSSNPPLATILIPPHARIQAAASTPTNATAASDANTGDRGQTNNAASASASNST

CSc1ncc(Cl)c(C(=O)NC2COCCn3c2nc(-c2ccncn2)cc3=O)n1 (racemic) [compound 15, (+/−)-5-Chloro-2-methylsulfanyl-pyrimidine-4-carboxylic acid (4-oxo-2-pyrimidin-4-yl-5,6,8,9-tetrahydro-4H-7-oxa-1,4-a-diaza-benzocyclohepten-9-yl)-amide]
IC50 [1]: 31 nM

O=C(NC1COCCn2c1nc(-c1ccncn1)cc2=O)c1ccccn1 (racemic) [compound 17, (+/−)-Pyridine-2-carboxylic acid (4-oxo-2-pyrimidin-4-yl-5,6,8,9-tetrahydro-4H-7-oxa-1,4-a-diaza-benzocyclohepten-9-yl)-amide]
IC50: 15 nM

CSc1ncc(Br)c(C(=O)NC2COCCn3c2nc(-c2ccncn2)cc3=O)n1 (racemic) [compound 18, (+/−)-5-Bromo-2-methylsulfanyl-pyrimidine-4-carboxylic acid (4-oxo-2-pyrimidin-4-yl-5,6,8,9-tetrahydro-4H-7-oxa-1,4-a-diaza-benzocyclohepten-9-yl)-amide]
IC50 [1]: 52 nM

O=C(NC1COCCn2c1nc(-c1ccncn1)cc2=O)c1cc(F)cc2c1OCOC2 (racemic) [compound 12, (+/−)-6-Fluoro-4H-benzo[1,3]dioxine-8-carboxylic acid (4-oxo-2-pyrimidin-4-yl-5,6,8,9-tetrahydro-4H-7-oxa-1,4-a-diaza-benzocyclohepten-9-yl)-amide]
IC50 [1]: 5 nM
